Patent publication US20220370416A1, “COMPOUNDS AND METHODS FOR TARGETED DEGRADATION OF KRAS” (Arvinas Operations, Inc., priority 2020, published 2022)

Columns and labels:
[1] = biological target: T1, HiBit-KRAS^G12C (Homo sapiens, UniProt P01116, G12C); assay: HiBit degradation assay in SW1573 HiBit-KRas^G12C cells; format: cell-based; set-up: expressed in transfected cells; host or cells: SW1573 (clone E6), modified pcDNA3.1 vector, TK promoter; settings: 24 hours
Method in brief: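 HiBit-KRAS G12C degradation was measured after a 24 h compound exposure (titrated 10 μM–20 nM) in engineered SW1573 cells. Lytic HiBit luminescence, expressed relative to DMSO controls, yielded DC50 and Dmax from 4-parameter fits. Concentrations causing ≥50% loss in alamar blue viability were omitted as cytotoxic.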

[2] = biological target: T1, HiBit-KRAS^G12C; assay: HiBit degradation assay in MiaPaCa-2 HiBit-KRas^G12C cells; format: cell-based; settings: 24 hours; for Dmax: MIA PaCa-2, MiaPaCa-2 HiBit-KRas^G12C cells, maximum degradation; for DC50: MiaPaCa-2 HiBit-KRas^G12C cells
Method in brief: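 DC50 and Dmax come from 4-parameter fits of DMSO-normalized HiBit luminescence after 24 hours' exposure at 37° C to 10 μM–20 nM compound in 0.1% or 0.5% DMSO. Cells: MiaPaCa-2 carrying one endogenously HiBit-tagged KRAS^G12C allele; concentrations causing ≥50% […] viability loss (alamar blue) excluded.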

[3] = SW1573, SW1573 HiBit-KRas^G12C, 0.1% DMSO, read-out: KRas^G12C-HiBit (SW1573; 0.1% DMSO) Dmax**
[4] = SW1573, SW1573 HiBit-KRas^G12C, 0.5% DMSO, read-out: KRas^G12C-HiBiT (SW1573; 0.5% DMSO) Dmax**
[5] = SW1573 HiBit-KRas^G12C, 0.1% DMSO, read-out: KRas^G12C-HIBit (SW1573; 0.1% DMSO) DC50*
[6] = 0.1% DMSO, read-out: KRas^G12C-HiBiT (MiaPaCa; 0.1% DMSO) DMax
[7] = 0.5% DMSO, read-out: KRas^G12C-HiBiT (MiaPaCa; 0.5% DMSO) DMax
[8] = read-out: KRas^G12C-HiBiT (SW1573; 0.5% DMSO) IC50***, SW1573 HiBit-KRas^G12C, 0.5% DMSO
[9] = read-out: KRas^G12C-HiBiT (MiaPaCa; 0.1% DMSO) IC50, 0.1% DMSO
[10] = read-out: KRas^G12C-HiBiT (MiaPaCa; 0.5% DMSO) IC50, 0.5% DMSO

T1 sequence (P01116 1-186 isoform P01116-2 G12C limits assumed): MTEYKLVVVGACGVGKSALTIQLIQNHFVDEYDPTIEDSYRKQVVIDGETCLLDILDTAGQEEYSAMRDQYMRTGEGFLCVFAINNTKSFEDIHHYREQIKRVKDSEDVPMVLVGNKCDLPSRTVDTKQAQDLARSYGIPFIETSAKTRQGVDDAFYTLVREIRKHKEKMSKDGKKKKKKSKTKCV

| SMILES | Dmax [1, 3] [%] | Dmax [1, 4] [%] | DC50 [1, 5] [nM] | Dmax [2, 6] [%] | Dmax [2, 7] [%] | DC50 [1, 8] [nM] | DC50 [2, 9] [nM] | DC50 [2, 10] [nM] | Dmax ([1]; SW1573, read-out: KRas^G12C-HiBit (SW1573; 0.1% DMSO) Dmax**, SW1573 HiBit-KRas^G12C, 0.1% DMSO) [%] |
| --- | --- | --- | --- | --- | --- | --- | --- | --- | --- |
| C=CC(=O)N1CCN(c2nc(OCCN3CCC(OCCOc4cc([C@H](C(=O)N5C[C@H](O)C[C@H]5C(=O)N[C@@H](C)c5ccc(-c6scnc6C)cc5)C(C)C)on4)CC3)nc3c(F)c(-c4cc(O)cc5ccccc45)c(Cl)cc23)C[C@@H]1CC#N (single isomer, unassigned) [Compound 21] | > 70 | > 70 | 100 to 1000 | > 70 | > 70 |  |  |  |  |
| C=CC(=O)N1CCN(c2nc(O[C@H](C)CN3CCC(OCCOCC(=O)N[C@H](C(=O)N4C[C@H](O)C[C@H]4C(=O)N[C@@H](C)c4ccc(-c5scnc5C)cc4)C(C)(C)C)CC3)nc3c(F)c(-c4c(O)cccc4F)c(Cl)cc23)CC1 [Compound 61, (2S,4R)-1-[(2S)-2-{2-[2-({1-[(2R)-2-{[6-chloro-8-fluoro-7-(2-fluoro-6-hydroxyphenyl)-4-[4-(prop-2-enoyl)piperazin-1-yl]quinazolin-2-yl]oxy}propyl]piperidin-4-yl}oxy)ethoxy]acetamido}-3,3-dimethylbutanoyl]-4-hydroxy-N-[(1S)-1-[4-(4-methyl-1,3-thiazol-5-yl)phenyl]ethyl]pyrrolidine-2-carboxamide] | < 35 | 35 to 70 | 100 to 1000 |  |  | > 1000 | > 1000 | > 1000 |  |
| C=CC(=O)N1CCN(c2nc(OCCN3CCC(COc4cc([C@@H](C(=O)N5C[C@H](O)C[C@H]5C(=O)N[C@@H](C)c5ccc(-c6ccnn6C)cc5)C(C)C)on4)CC3)nc3c(F)c(-c4cc(O)cc5ccccc45)c(Cl)cc23)C[C@@H]1CC#N [Compound 159, (2S,4R)-1-[(2S)-2-[3-({1-[2-({6-chloro-4-[(3S)-3-(cyanomethyl)-4-(prop-2-enoyl)piperazin-1-yl]-8-fluoro-7-(3-hydroxynaphthalen-1-yl)quinazolin-2-yl}oxy)ethyl]piperidin-4-yl}methoxy)-1,2-oxazol-5-yl]-3-methylbutanoyl]-4-hydroxy-N-[(1S)-1-[4-(1-methyl-1H-pyrazol-5-yl)phenyl]ethyl]pyrrolidine-2-carboxamide] |  |  |  |  |  | > 1000 |  | > 1000 |  |
| C=C(F)C(=O)N1CCN(c2nc(OCCN3CCC(F)(COc4cc([C@@H](C(=O)N5C[C@H](O)C[C@H]5C(=O)N[C@@H](C)c5ccc(-c6ccnn6C)cc5)C(C)C)on4)CC3)nc3c(F)c(-c4cc(O)cc5ccccc45)c(Cl)cc23)C[C@@H]1CC#N (atropisomer, axis not shown) [Compound 118, (2S,4R)-1-[(2S)-2-[3-({1-[2-({6-chloro-4-[(3S)-3-(cyanomethyl)-4-(2-fluoroprop-2-enoyl)piperazin-1-yl]-8-fluoro-7-(3-hydroxynaphthalen-1-yl)quinazolin-2-yl}oxy)ethyl]-4-fluoropiperidin-4-yl}methoxy)-1,2-oxazol-5-yl]-3-methylbutanoyl]-4-hydroxy-N-[(1S)-1-[4-(1-methyl-1H-pyrazol-5-yl)phenyl]ethyl]pyrrolidine-2-carboxamide] |  |  |  |  |  | 100 to 1000 |  | > 1000 |  |
| C=CC(=O)N1CCN(c2nc(O[C@H](C)CN3CCN(CC4CN(CC(=O)N[C@H](C(=O)N5C[C@H](O)C[C@H]5C(=O)N[C@@H](C)c5ccc(-c6scnc6C)cc5)C(C)(C)C)C4)CC3)nc3c(F)c(-c4cc(O)cc5ccccc45)c(Cl)cc23)CC1 [Compound 28, (2S,4R)-1-[(2S)-2-{2-[3-({4-[(2R)-2-{[6-chloro-8-fluoro-7-(3-hydroxynaphthalen-1-yl)-4-[4-(prop-2-enoyl)piperazin-1-yl]quinazolin-2-yl]oxy}propyl]piperazin-1-yl}methyl)azetidin-1-yl]acetamido}-3,3-dimethylbutanoyl]-4-hydroxy-N-[(1S)-1-[4-(4-methyl-1,3-thiazol-5-yl)phenyl]ethyl]pyrrolidine-2-carboxamide] |  |  | 100 to 1000 |  |  |  | > 1000 |  | < 35 |
| C=CC(=O)N1CCN(c2nc(O[C@H](C)CN3CCC(COCC(=O)N[C@H](C(=O)N4C[C@H](O)C[C@H]4C(=O)N[C@@H](C)c4ccc(-c5scnc5C)cc4)C(C)(C)C)CC3)nc3c(F)c(-c4cc(O)cc5ccccc45)c(Cl)cc23)CC1 [Compound 65, (2S,4R)-1-[(2S)-2-[2-({1-[(2R)-2-{[6-chloro-8-fluoro-7-(3-hydroxynaphthalen-1-yl)-4-[4-(prop-2-enoyl)piperazin-1-yl]quinazolin-2-yl]oxy}propyl]piperidin-4-yl}methoxy)acetamido]-3,3-dimethylbutanoyl]-4-hydroxy-N-[(1S)-1-[4-(4-methyl-1,3-thiazol-5-yl)phenyl]ethyl]pyrrolidine-2-carboxamide] | 35 to 70 | > 70 | 100 to 1000 | 35 to 70 | 35 to 70 |  |  |  |  |
| C=CC(=O)N1CCN(c2nc(OCCN3CCC(COCC(=O)N[C@H](C(=O)N4C[C@H](O)C[C@H]4C(=O)N[C@@H](C)c4ccc(-c5scnc5C)cc4)C(C)(C)C)CC3)nc3c(F)c(-c4nc(NC)cc5ccccc45)c(Cl)cc23)C[C@@H]1CC#N [Compound 99, (2S,4R)-1-[(2S)-2-[2-({1-[2-({6-chloro-4-[(3S)-3-(cyanomethyl)-4-(prop-2-enoyl)piperazin-1-yl]-8-fluoro-7-[3-(methylamino)isoquinolin-1-yl]quinazolin-2-yl}oxy)ethyl]piperidin-4-yl}methoxy)acetamido]-3,3-dimethylbutanoyl]-4-hydroxy-N-[(1S)-1-[4-(4-methyl-1,3-thiazol-5-yl)phenyl]ethyl]pyrrolidine-2-carboxamide] |  | > 70 |  |  | > 70 | > 1000 |  | > 1000 |  |
